Results on one compound are retold here after patent US20160221974A1, “SODIUM CHANNEL MODULATORS FOR THE TREATMENT OF PAIN AND DIABETES” (CHROMOCELL CORPORATION, priority 2013, published 2016).

Experiment [1] relates to Partial Sciatic Nerve Ligation (PSNL) model. In words: Partial Sciatic Nerve Ligation (PSNL) model, behavioral tests. As to conditions: oral route, relative to vehicle control, measured 30 minutes post dose. It counts as in vivo, male Sprague-Dawley rats. An excerpt: 250-350 g male Sprague-Dawley rats from appropriate animal resources were anesthetized with 2.5% isoflurane. A hind leg was shaved, and the skin was sterilized with 0.5% iodine and 75% alcohol. All surgical instruments were sterilized before surgery and between animals. An incision (1 cm) was made at the middle of the thigh in parallel with the muscle and sciatic nerve distribution. The muscle was exposed and dissected at the joint of two muscles (biceps femoris) indicated by the light colored (white) fascia line. The sciatic nerve was just beneath the muscle and was hooked out using an 18-20 G feeding needle (90 degree curved); the sciatic nerve was flat on the feeding needle and approximately one-half the diameter of the nerve is tightly ligated with 7-0 silk suture. A response of the injured leg twitch indicates the success of ligation. After checking hemostasis, bupivicaine 0.1-0.2 ml (0.125%) was given at the incision area, the muscle and the adjacent fascia are closed with 5-0 absorbable sutures. The skin was sutured with absorbable suture and tissue glue. The control group using sham surgery animals (about 8-10 animals) underwent the same surgical procedure but with no nerve ligation. Animals were returned to their home cage after recovery from anesthesia.
The analgesic effect of the test compound was expressed as a percent recovery (% Recovery) relative to the sham control group baseline and calculated according to the formula:
% Recovery=100%−{[(sham mean−test compound mean)/(sham mean−vehicle mean)]×100%}
wherein “sham mean” refers to average score in the sham-operated group; “test compound mean” refers to average score in the PSNL-group (animals with partial sciatic nerve ligation) or diabetic group (animals treated with STZ) treated with a test compound; “vehicle mean” refers to average score in the PSNL-group or diabetic group treated with vehicle only. The above formula was used to obtain data for the following in vivo behavioral tests.
The following behavioral tests were conducted (i.e., plantar test, paw pressure test, and von Frey test) started on day 3 and thereafter once weekly following surgery or use of a diabetic inducer. […]
Rats were placed on the glass surface of a thermal testing apparatus (Model 336, IITC/Life Science Instruments, Woodland Hills, Calif.) and were allowed to acclimate for 10 min before testing on the glass surface at room temperature. […] The paw withdrawal latency was recorded by a digital timer. The thermal threshold was determined as the mean withdrawal latency from two to three consecutive trials of both hindpaws. […]
Animals were placed under clear plastic boxes above a wire mesh floor, which allowed full access to the paws. […] Mechanical paw withdrawal thresholds (PWTs) were measured with the up-down testing paradigm. […]

Experiment [2] deals with rat streptozotocin-induced model for diabetes. In words: Evaluation of Anti-Diabetic Effect in In Vivo Model of Diabetes (chronic dosing, STZ rats). On the procedure: 250-350 g male Sprague-Dawley rats from appropriate animal resources were used. Type I diabetes was induced by a single injection, (intraperitoneally, intravenously or intramuscularly) of 50-100 mg/kg of streptozotocin (STZ, Sigma Chemicals, St. Louis, Mo. or VWR) freshly dissolved in sodium citrate (0.01 M, pH 4.5). Sham animals were given either saline or same vehicle injection. Following a wait time of about two days, inducement of diabetes was confirmed in STZ-injected rats by measuring the plasma glucose concentrations in blood samples from the tail vein after a fast of 6 hours. The glucose level was assayed using a mini glucose monitor (kit for AlphaTRAK 2 meter, available from Abbott Laboratories). Screening for hyperglycemia in STZ-injected animals was done, with only animals with a final blood glucose level ≧300 mg/dl being selected for the study. Glucose levels in the sham animals remained normal. Other parameters (water intake, food intake, and bodyweight) were monitored before the treatment with a test compound and after the cessation of the treatment.
A Compound provided herein is tested in the rat STZ model of diabetes by chronic administration of the Compound for at least 7 days to evaluate analgesic and antidiabetic effects of the Compound. The analgesic effect of the Compound can be evaluated using behavioral tests (e.g., von Frey test, plantar test, and paw pressure test described herein below). The anti-diabetic effect of the Compound can be evaluated based on the improvement in the glucose level, food intake, water intake in the compound treated group compared to the untreated vehicle group and the normal, non-diabetic sham control group.
Diabetes mellitus was induced in rats as described in paragraph [00327] above.
The baseline glucose levels, daily food and water intake and behavioral tests (von Frey, paw pressure and plantar tests) were measured for each animal once weekly for 28 weeks, and once every 2-4 weeks for an additional 28-30 weeks. At a selected week (started from week 6) for a compound test, diabetic rats were divided into two test groups: a vehicle control group and a test compound treated group (n=10 each group). A sham group (saline only without STZ i.p. injection, n=10) was added as a normal, non-diabetic control group. To minimize animal stress associated with repeated daily handling, the compound treated diabetic group of animals received the test compound at a daily dose of 60 mg/kg in their drinking water containing 2% PEG600 and 1% glycofurol (the test compound concentration in the drinking water was based on the individual animal's average daily water consumption as determined the pre-dosing period, which averaged 0.1-0.11 mg/ml). The vehicle control group received drinking water containing 2% PEG600 and 1% glycofurol without the test compound. The treatment continued for 9 days. On day 10 drinking water with test compound or vehicle (2% PEG600 and 1% glycofurol) was replaced with plain drinking water in all groups. The monitoring of glucose levels, food and water intake as well as behavior tests continued for additional 28-30 weeks. […] A gradual, significant reversal of up to 90% of mechanical allodynia (von Frey test) was achieved after 9 days of treatment.
FIGS. 1-3 show food intake, glucose level, and water intake, respectively, for the vehicle control group, the test compound treated group (compound 49, 60 mg/kg/day), and the sham group. […] The significant reduction of food intake, glucose level, and water intake of the compound treated group compared to the vehicle control group continues through week 52. […] Since the standard deviation in the sham groups are less than 5%, no error bars are shown.

The mark [3] stands for this setting: diabetic rats, 60 mg/kg/day in drinking water for 9 days.
Where [4] appears, read: measured on day 11, two days after compound withdrawal.

On to `NC(=O)CNCCCc1cc(Cl)ccc1Oc1cc(F)c(S(=O)(=O)Nc2cscn2)cc1Cl` [Compound 49, 2-((3-(5-chloro-2-(2-chloro-5-fluoro-4-(N-(thiazol-4-yl)sulfamoyl)phenoxy)phenyl)propyl)amino)acetamide], for which the “effect in the tactile allodynia test” value in experiment [1] was “no significant effect”. Moreover, in experiment [2] (diabetic rats, 60 mg/kg/day for 9 days, compared to vehicle control group, continues through week 52 (FIG. 1)), the food intake result is listed as “significantly reduced”. Moreover, in experiment [2] (diabetic rats, 60 mg/kg/day for 9 days, compared to vehicle control group, continues through week 52 (FIG. 2)), the glucose level entry is reported as “significantly reduced”. The water intake entry in experiment [2] (diabetic rats, 60 mg/kg/day for 9 days, compared to vehicle control group, continues through week 52 (FIG. 3)) was “significantly reduced”. In addition, in experiment [2] (setting [3]), the “mechanical pain (paw pressure test)” value is “rapid and sustained improvement”; the “thermal pain (plantar test)” value was “rapid and sustained improvement”. For the same compound, the tachyphylaxis result in experiment [2] (diabetic rats, 60 mg/kg/day in drinking water for 9 days, paw pressure and plantar tests) is “no tachyphylaxis”. Further, the “reversal of mechanical allodynia (von Frey test)” value in experiment [2] (diabetic rats, 60 mg/kg/day in drinking water, after 9 days of treatment) is recorded as “up to 90%”. For the same compound, the “time allodynia threshold (von Frey test) stayed significantly above the pretreatment level baseline after compound withdrawal” value in experiment [2] (diabetic rats, after 9 days of 60 mg/kg/day) is “up to 5 days”. Also, in experiment [2] (diabetic rats, after treatment with 60 mg/kg/day stopped on day 9), the “general appearance and/or health” value is “improvements in general appearance and/or health”. Besides, in experiment [2] (setting [4]), the “paw pressure test threshold after compound withdrawal” value is “returned to the pretreatment baseline” and the “plantar test threshold after compound withdrawal” value was “returned to the pretreatment baseline”.
